Results on eleven compounds are retold here after ChEMBL document CHEMBL1201862, “PubChem BioAssay data set” (2004).

Common to all, as to experiment: NCI tumour cell line growth inhibition, 48 h
Test [1] has as its system 786-0.
In test [2] the test system is BT-549.
Test [3] deals with COLO 205.
The test system of test [4] is HCC 2998.
Test [5] deals with HCT-15.
The test system of test [6] is HOP-62.
Test [7] relates to M14.
In test [8] the test system is MDA-N.
Test [9] deals with MOLT-4.
Test [10] has as its system Malme-3M.
Test [11] relates to NCI-H23.
Test [12] has as its system NCI/ADR-RES.
The subject of test [13] is PC-3.
Test [14] deals with SF-268.
Test [15] relates to SF-539.
The subject of test [16] is TK-10.
For test [17], the system named is UACC-257.
The subject of test [18] is UACC-62.
Test [19] has as its system A498.
Test [20] relates to SK-MEL-2.

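Protocol summary: plate cells (96-well), add compound at 5 concentrations, incubate 48 h, interpolate endpoints linearly. Here, GI50 denotes the concentration required for 50% inhibition of growth.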 Calls of active or inactive are those of the source. Rule as the data show it: active = GI50 up to about 1.1 µM and inactive = higher.

As for `c1ccc(-c2sc(-c3cccs3)cc2Cc2cccs2)cc1`, the GI50 was > 10 µM (inactive) in test [1]; > 10 µM (inactive) in test [2]; > 10 µM (inactive) in [3]; > 10 µM (inactive) in [4]; over 10 µM in [5]; > 10 µM (inactive) in [6]. Besides, the GI50 in [7], in [8], in test [9], in test [10], in test [11] and in test [12] was > 10 µM (inactive) throughout. For the same compound, the GI50 in [13], in test [14], in test [15], in [16], in test [17] and in [18] was > 10 µM (inactive) each time.

Regarding `Cc1nnc2ccccc2c1O`, the GI50 in test [1] is > 100 µM (inactive); in test [19] it was > 100 µM (inactive); in test [2], > 100 µM (inactive); in test [3], > 100 µM (inactive); in test [5], over 100 µM; in test [6] it was > 100 µM (inactive). The GI50 in [7] was > 100 µM (inactive); in [8], > 100 µM (inactive); in test [9], 6.34 µM (inactive); in test [10], > 100 µM (inactive); in [11], > 100 µM (inactive); in test [12], > 100 µM (inactive). For the same compound, the GI50 in test [13], in [14], in test [15], in test [20], in [16] and in test [17] was > 100 µM (inactive) throughout. Further, in test [18], the GI50 is > 100 µM (inactive).

With `COC1(C2c3ccccc3CCN2C(=O)OC(C)(C)C)C(=O)C(c2ccccc2)=C1N(C)C` (configuration not stated), the GI50 is 26.9 µM (inactive) in [1]; 25.4 µM (inactive) in test [19]; 27.9 µM (inactive) in [2]; 18.5 µM (inactive) in [3]; 30.9 µM in test [5]; 37 µM (inactive) in test [6]. The GI50 was 27.3 µM (inactive) in test [7]; 21.5 µM (inactive) in test [8]; 43.3 µM (inactive) in test [9]; 35.2 µM (inactive) in test [10]; 23.3 µM (inactive) in test [11]; 21.1 µM (inactive) in test [12]. In addition, the GI50 is 25.2 µM (inactive) in test [13]; 45.1 µM (inactive) in [14]; 19.1 µM (inactive) in [15]; 27.3 µM (inactive) in test [20]; 48.2 µM (inactive) in test [16]; 40.6 µM (inactive) in test [17]. Also, the GI50 in [18] was 30.5 µM (inactive).

As to `COc1ccc2c(c1)CN1C(=N2)CSC1c1c(Cl)cccc1[N+](=O)[O-]` (configuration not stated), the GI50 in [1] is 25.9 µM (inactive); in [2] it was 14.9 µM (inactive); in test [3], 11.4 µM (inactive); in test [4], 22.7 µM (inactive); in test [5], 16.6 µM; in test [6] it was 34.3 µM (inactive). For the same compound, the GI50 was 18.3 µM (inactive) in [7]; 18.5 µM (inactive) in test [8]; 12.6 µM (inactive) in [9]; 30.2 µM (inactive) in test [10]; 15.8 µM (inactive) in test [11]; 15.1 µM (inactive) in test [12]. Further, the GI50 in [13] is 23.8 µM (inactive); in test [14], 20 µM (inactive); in test [15], 15.1 µM (inactive); in test [20], 17.5 µM (inactive); in [16] it was 28.2 µM (inactive); in test [17], 17.2 µM (inactive). Further, the GI50 in test [18] is 20 µM (inactive).

Take `CCOC(=O)N/N=C(\Cc1ccc([N+](=O)[O-])cc1)OCC`: the GI50 in test [1] is > 100 µM (inactive); in test [2], > 100 µM (inactive); in test [3] it was > 100 µM (inactive); in test [4], > 100 µM (inactive); in test [5], over 100 µM; in test [6] it was > 100 µM (inactive). Further, the GI50 in [7], in [8], in [9], in test [11], in test [12] and in [13] was > 100 µM (inactive) throughout. Further, the GI50 in test [14], in [15], in test [20], in [16], in test [17] and in [18] was > 100 µM (inactive) in each case.

Turning to `COc1ccc(C2SC(=N)Nc3c2c(C)nn3C(=O)c2ccc(Cl)cc2)cc1` (configuration not stated), the GI50 in test [1] is > 10 µM (inactive); in test [2], > 10 µM (inactive); in test [3] it was > 10 µM (inactive); in test [4] it was > 10 µM (inactive); in [5] it was over 10 µM; in test [6] it was > 10 µM (inactive). Further, the GI50 in test [7], in test [8], in test [9], in test [10], in [11] and in [12] was > 10 µM (inactive) in each case. Further, the GI50 in [13], in test [14], in test [15], in test [20], in test [16] and in [17] was > 10 µM (inactive) in each case. Besides, the GI50 in test [18] is > 10 µM (inactive).

Take `Cc1cc2nc(N3C(=O)/C(=C/c4ccc(N(C)C)cc4)N=C3c3ccccc3)sc2cc1C`: the GI50 was 20.5 µM (inactive) in test [1]; 44.5 µM (inactive) in test [2]; 18 µM (inactive) in test [3]; 18.9 µM (inactive) in test [4]; 32.5 µM in [5]; > 100 µM (inactive) in test [6]. In addition, the GI50 in test [7] is 26.7 µM (inactive); in test [8], 11.6 µM (inactive); in test [9] it was 1.14 µM (inactive); in test [12] it was 28.6 µM (inactive); in test [13] it was 15.9 µM (inactive); in test [14] it was 40 µM (inactive). The GI50 in test [15] is 22.2 µM (inactive); in test [20], 24.1 µM (inactive); in test [16], 58.9 µM (inactive); in [17], 27.2 µM (inactive); in test [18], 20.3 µM (inactive).

Consider `CC1(C)c2ccccc2C(=O)C12CCC(=O)CC2`, for which the GI50 is > 100 µM (inactive) in test [1]; > 100 µM (inactive) in test [2]; > 100 µM (inactive) in test [3]; > 100 µM (inactive) in test [4]; over 100 µM in [5]; > 100 µM (inactive) in [6]. Besides, the GI50 is > 100 µM (inactive) in [7]; > 100 µM (inactive) in test [8]; > 100 µM (inactive) in test [9]; 60.5 µM (inactive) in [10]; > 100 µM (inactive) in test [11]; > 100 µM (inactive) in test [12]. Further, the GI50 in test [13], in test [14], in [15], in test [20], in [16] and in test [17] was > 100 µM (inactive) throughout. Moreover, the GI50 in test [18] is > 100 µM (inactive).

Turning to `CC(C)(C)c1cc(C2COC(c3cc(C(C)(C)C)c(O)c(C(C)(C)C)c3)CO2)cc(C(C)(C)C)c1O` (configuration not stated), the GI50 in [1] is > 100 µM (inactive); in [19], > 100 µM (inactive); in [2], > 100 µM (inactive); in test [3] it was 33.1 µM (inactive); in [5] it was over 100 µM; in [6], > 100 µM (inactive). For the same compound, the GI50 in test [7], in test [8], in test [10], in test [11], in test [12] and in test [13] was > 100 µM (inactive) each time. Besides, the GI50 in [14], in test [15], in test [20], in test [16], in [17] and in [18] was > 100 µM (inactive) throughout.

On to `O=Cc1cc(C(=O)OCc2ccccc2)n(S(=O)(=O)c2ccccc2)c1`, for which the GI50 in test [1] is 30.7 µM (inactive); in test [2] it was 16 µM (inactive); in [3], 26.1 µM (inactive); in [4] it was 17 µM (inactive); in [5], 11.1 µM; in test [6] it was 13.2 µM (inactive). Further, the GI50 in [7] was 14.8 µM (inactive); in test [8] it was 5.31 µM (inactive); in test [9], 23 µM (inactive); in test [10], 30.5 µM (inactive); in test [11], 20.6 µM (inactive); in test [12] it was 31 µM (inactive). Also, the GI50 was 16.6 µM (inactive) in test [13]; 21.1 µM (inactive) in [14]; 12.7 µM (inactive) in [15]; 16.8 µM (inactive) in test [20]; 24 µM (inactive) in test [16]; 24.7 µM (inactive) in test [17]. The GI50 in [18] was 11 µM (inactive).

On to `CC(=O)NC(Cc1c[nH]c2ccccc12)C(=O)O` (configuration not stated), for which the GI50 in test [1] was > 100 µM (inactive); in test [19], > 100 µM (inactive); in test [2] it was > 100 µM (inactive); in [3] it was > 100 µM (inactive); in test [5] it was over 100 µM; in [6], > 100 µM (inactive). The GI50 in test [7], in [8], in [10], in test [11], in [12] and in test [13] was > 100 µM (inactive) throughout. The GI50 in test [14] was > 100 µM (inactive); in test [20], > 100 µM (inactive); in test [16], > 100 µM (inactive); in [17] it was 26.2 µM (inactive); in test [18], > 100 µM (inactive).
